{"source": "patent US12590954B2", "about": "“Neural stem cell-induced differential medium and induction differentiation method” (IREGENE THERAPEUTICS, CO., LTD., priority 2020, dated 2026)", "key": {"[1]": {"test_system": "Human pluripotent stem cells", "experiment": "Chemical induction of neural stem cells (neural rosette formation, cell morphology)", "assay_type": "cell-based", "from_the_text": "Human pluripotent stem cells include embryonic pluripotent stem cells, such as the H19 cell line and human induced pluripotent stem cells. Wherein, the human induced pluripotent stem cells used in the present invention are obtained from the reprogramming of CD34^+ cells, which refers to “reprogramming culture medium and reprogramming induced pluripotent stem cell culture method” (the method in the patent ZL201910050800.7).\nHuman pluripotent stem cells are used to coat T25 cell culture flasks with Matrigel ([…] Technologies), and then placed in a 37° C. incubator for more than one hour after plating. Follow 1×10^6 Cells were seeded in T25 flasks for expansion and passage.\nFor neural induction, use 50 μg/mL poly-lysine (SIGMA, Cat. No.: P6407) to coat a 6-well culture plate, and incubate at 37° C. for more than 3 hours after plating; then use 5 μg/mL Laminin (SIGMA ALDRICH, Cat. No.: 12020) for further coat, and then place in a 37° C. incubator to incubate for more than 3 hours. When pluripotent stem cells reached 70% coverage, they were digested with EDTA at 37° C. for 5 min, and DMEM was used to stop cell digestion. Cells are washed and centrifuged at 2×10^5 the proportions of each flask and are re-seeded in T25 plates. Neural induction is performed using the medium of the present invention in combination with the neural inducing compound, and the medium is changed every day until the neural stem cell rosette is formed. […] Therefore, the single-molecule inducing method provided by this method can induce pluripotent stem cells to form neural rosette structures more efficiently and uniformly.\n(§1) From the above results, it is known that the differentiation is not complete under the low concentration condition, and many different types of cells can be seen. However, neural stem cells obtained in high concentration condition are easily differentiated and cell stress appears."}, "[2]": {"test_system": "Human pluripotent stem cells", "experiment": "CyQuant quantitative detection of cell viability during induction", "assay_type": "cell-based", "experimental": "The Cyquant assay was used to perform the quantitative detection of cell viability, thus investigating the effect of LY2157299 on the physiological state of the cells during long-term culture of the cells; Among them, the LSB method was used as the control group. 96-well light-tight cell culture plates were coated; after the coating was complete, cells were seeded separately at 5×10^4 cell number per well and three sets of parallel replicates were set (the average of three sets was calculated as data) to repeat the procedure of example 2.1. Wherein, the culture procedures described previously were incubated at 37° C. with 5% CO2. Samples were taken on days 1, 5, 10, 15 and 20 for cell viability assay using CyQuant Kit (Invitrogen, cat. No: X12223). The aforementioned assay was operated according to the instructions with a Spectramax i3 Multi-Mode Microplate Reader (VWR, model number: ID3-STD) for data reading."}, "[3]": {"test_system": "neural stem cells", "experiment": "Q-PCR of marker genes during induction from pluripotent stem cells to neural stem cells", "assay_type": "cell-based, human", "conditions": "different concentrations of LY2157299", "experimental": "Transcriptional changes of different marker genes during induction from pluripotent stem cells to neural stem cells were detected by using Q-PCR. The induced pluripotent stem cells used in this example are neural stem cells derived by LY inducing method and LSB inducing method, respectively. Neural stem cells were prepared as described previously using Rneasy Mini or Micro Kit (QIAGEN) for total RNA extraction, in which […] RNA was used to synthesize cDNA with superscript III First-Strand Synthesis System (Invitrogen).\nSYBR Premix Ex Taq (TaKaRa) and Thermal Cycler Dice Real Time System TaKaRa) were used to perform labeling and reactions for Quantitative PCR, with beta-Actin as internal reference. All the above data were analyzed with the delta-Ct method. Each set of trials was tested using three sets of replicates, and variance statistics were performed.\nas §1"}, "[4]": {"test_system": "neural stem cells", "experiment": "Directed differentiation of induced neural stem cells into neurons (immunofluorescence)", "assay_type": "cell-based, human", "experimental": "The neural stem cells obtained by the LY inducing method in Example 2 were subjected to directed differentiation in NouvNeu001 basal medium. For neuronal differentiation, use 50 μg/mL polylysine (SIGMA ALDRICH, Cat. No.: P6407) to coat a 6-well culture plate, and place the plate in a 37° C. incubator and incubate for more than 3 hours until cells are seeded.\nThe neural stem cells obtained in example 2 were seeded at a density of 1×10^5 the ratio per flask was inoculated in T25 flasks, and 3 μM CHIR99021 (Selleck, Cat. No.: S2924), 10 μM SU5402 (Tocris, Cat. No.: 3300/1), 10 μM DAPT (Selleck, Cat. No.: 52215) were added to NouvNeu001 basal medium. Fresh medium was replaced every 3 days until day 21. The above cultures were incubated at 37° C. with 5% CO2.\nThe neural stem cells obtained in example 2 were seeded at a density of 1×10^5 the ratio per flask was inoculated in T25 flasks, and 1 μM Purmorphamine Sellek, Cat. No.: S3042) and […] TGF-β3 (Novoprotein, Cat. No.: CJ44) were added to NouvNeu001 basal medium to culture neural stem cells. Fresh medium was replaced every 3 days until day 30. The above cultures were incubated at 37° C. with 5% CO2.\nThe neural stem cells obtained in example 2 were seeded at a density of 1×10^5 the ratio per flask was inoculated in T25 flasks, and 0.5 μM retinyl acetate (SIGMA ALDRICH, Cat. No.: R7782) was added to NouvNeu001 basal medium. Fresh medium was replaced every 3 days until day 21. The above cultures were incubated at 37° C. with 5% CO2.\nAfter induction and differentiation, the cells were harvested and identified by immunofluorescence staining: cells were fixed with 4% paraformaldehyde at room temperature for 40 minutes, washed twice with DPBS buffer; then permeabilized with 0.1% Triton X-100 for 5 minutes, and buffered with DPBS The cells were then washed twice with DPBS buffer containing 10% horse serum and 0.1% Triton X-100 at 4° C. overnight; the cells were washed with DPBS buffer and then washed with 2% horse serum and 0:1% Triton X-100. […]"}, "[5]": {"test_system": "major histocompatibility complex (MHC) genes", "experiment": "Q-PCR detection of MHC genes of induced neural stem cells", "assay_type": "cell-based", "conditions": "compared with human pluripotent stem cells", "from_the_text": "The major histocompatibility complex (MHC) genes of neural stem cells induced by LY2157299 was detected by Q-PCR method, and pluripotent stem cells (iPS) were used as control."}, "[6]": {"test_system": "HLA-DR", "experiment": "Flow cytometry detection of HLA-DR antigens of induced neural stem cells", "assay_type": "cell-based, human", "experimental": "The HLA-DR antigens of neural stem cells induced by LY2157299 were detected by flow cytometry. HLA-DR is an MHC class II molecule whose expression is critical for the antigen-presenting function of cells and plays a key role in adoptive immune responses. The induced neural stem cells obtained in Example 2 were digested with EDTA, washed with DPBS, centrifuged to remove the supernatant, and 10^6 Cells were resuspended in 100 μL of diluted primary antibody (CD45 PerCP, Abeam, Cat. No. ab157309; HLA-DR FITC, CST, Cat. No. 54126), incubated on ice for 1 hour in the dark, centrifuged to remove supernatant, and cells were resuspended in 500 μL of antibody dilution buffer (CST) and analyzed on a flow cytometer. Samples incubated without primary antibody were used as controls. The results are shown in FIG. 7, FIG. 7a is a negative control, FIG. 7b is the HLA-DR detection result of the neural stem cells obtained by LY2157299 induction."}, "[7]": {"test_system": "human induced pluripotent stem cells", "experiment": "Brain organoid formation and diameter", "assay_type": "cell-based", "conditions": "12.5 μM LY2157299", "experimental": "Organoid culture was performed with human induced pluripotent stem cells. Organoid inducing medium was formulated as follows: NouvNeu basal medium supplemented with 12.5 μM […]. Induced pluripotent stem cells were digested to single cells by Accutase, seeded in 15-bottom-ultra-low attachment 96-well plates at a ratio of 9000 cells/[…] of brain organoid inducing medium per well. 10 μM ROCK inhibitor Y-27632 (Selleck, 51049) was added, and the cells were placed in a 37° C., 5% carbon dioxide cell incubator for 24 hours (Panasonic, model: MCO-18AC). Y-27632-free fresh organoid inducing medium was changed the following day until day 10. Day 10 the organoids were transferred to ultra-low-attachment 6-well plates and the medium was changed to NouvNeu001 basal medium supplemented with 2% B27 cell culture additive. The culture was conducted at 37° C. in a 5% CO2 cell culture incubator on a horizontal rotator at 80 rpm until day 120.\nThe control experiment was carried out according to the published method (Clair B et. al, Nat Methods. 2019, November; 16 (11): 1169-1175). N2B27 was used as the basic medium for organ like culture. […]\nOrganoids were photographed by Leica Dmi8. The brain organoids were photographed and their diameters were measured. […]"}, "[8]": {"experiment": "Freezing point osmometer: osmolality of the culture system", "assay_type": "physicochemical", "experimental": "A fully automated freezing point osmometer (FM-8P, Shanghai Yida Instruments Co., Ltd.) was used to detect the effects of different concentrations of sodium chloride on the osmolality of the culture system, and the specific operations were enrolled in the product instructions (FM-8P, Shanghai Vida Instruments Co., Ltd.). The test results are detailed in FIG. 2a. […] However, when the concentration reached […], the osmolality of the culture system already exceeded the cell culture limit of 320 mOsm/kg."}}, "note": "“Also recorded” adds a separate entry of the source."}
{"compound": "Cc1cccc(-c2nn3c(c2-c2ccnc4ccc(C(N)=O)cc24)CCC3)n1", "note": "[LY2157299, 4-(2-(6-methylpyridin-2-yl)-5,6-dihydro-4h-pyrrolo[1,2-b]pyrazol-3-yl) quinoline-6-carboxamide]", "values": [{"measurement": "cell population obtained by chemical induction", "setting": "[1]; 12.5 μM LY2157299", "value": "a uniform cell population"}, {"measurement": "cell population obtained by chemical induction", "setting": "[1]; 25 μM LY2157299", "value": "a mixed population of neural cells was obtained"}, {"measurement": "cell stress on chemical induction", "setting": "[1]; 25 μM LY2157299", "value": "cells showed signs of stress with intracellular vacuoles"}, {"measurement": "cell population obtained by chemical induction", "setting": "[1]; 20 nm LY2157299", "value": "a mixed population of cells including neural cells was obtained"}, {"measurement": "number of neural cells induced (CyQuant)", "setting": "[2]; samples on days 1, 5, 10, 15 and 20, LSB method as control", "value": "more number of neural cells compared with LSB method"}, {"measurement": "Pax6 expression versus concentration (Q-PCR)", "setting": "[3]", "value": "positively correlated with Pax6 expression"}, {"measurement": "apoptosis gene CASP3 versus concentration (Q-PCR)", "setting": "[3]", "value": "positively correlated with apoptosis"}, {"measurement": "nociceptor neuron differentiation of induced neural stem cells: marker expression", "setting": "[4]; CHIR99021, SU5402, DAPT in NouvNeu001 until day 21", "value": "able to express the nociceptor neuronal markers SCN11A and Nestin"}, {"measurement": "dopaminergic neuron differentiation of induced neural stem cells: marker expression", "setting": "[4]; Purmorphamine and TGF-β3 in NouvNeu001 until day 30", "value": "could express the mature dopaminergic neuron specific markers Tyrosine Hydroxylase (TH) and Pitx3"}, {"measurement": "photoreceptor neuron differentiation of induced neural stem cells: marker expression", "setting": "[4]; retinyl acetate in NouvNeu001 until day 21", "value": "could express the photoreceptor neuronal markers OPSIN and CRX"}, {"measurement": "expression of MHC associated genes in induced neural stem cells", "setting": "[5]", "value": "significantly lower than human induced pluripotent stem cells; also recorded: extremely low levels"}, {"measurement": "HLA-DR antigen expression of induced neural stem cells", "setting": "[6]", "value": "do not express HLA-DR; also recorded: negative"}, {"measurement": "generation of cerebral organoids", "setting": "[7]", "value": "can induce the generation of cerebral organoids"}]}
{"compound": "recombinant insulin: component of the basal medium", "values": [{"measurement": "rate of cell proliferation versus concentration (CyQuant)", "setting": "[2]; different concentrations, long-term culture", "value": "positively correlated with the rate of cell proliferation"}]}
{"compound": "[Cl-].[Na+]", "note": "[sodium chloride]", "values": [{"measurement": "osmotic pressure of the culture system versus concentration", "setting": "[8]; different concentrations of sodium chloride", "value": "linear increase"}, {"measurement": "osmolality of the culture system", "setting": "[8]; sodium chloride concentration 1 μg/mL", "value": "> 320", "unit": "mOsm/kg"}]}
